Consider twelve molecules from US11718618B2, “Substituted pyrido[2,1-a]isoquinolines as VMAT2 inhibitors” (priority 2021, dated 2023).

A short description of data set [1]: Stability of compounds in human liver microsomes. To be noted: for CLint scaled at 0.5 μM / half-life at 0.5 μM: both sexes, pH 7.4; for CLint scaled at 0.5 μM: liver microsomes, calculated from HLM half-life, read-out: HLM Scaled Intrinsic Clearance; for CLint scaled at 0.5 μM / Predicted Max. Bioavailability (% F) / HLM Predicted Systemic Clearance: human; for half-life at 0.5 μM: 0.5 μM compound, 0.5 mg/mL human liver microsomes, 37° C., maxed at 420 minutes, read-out: HLM Elimination half-life (t1/2, min); for Predicted Max. Bioavailability (% F): predicted from HLM data; for HLM Predicted Systemic Clearance: scaled from HLM half-life (Obach method). In kind it is in vitro ADME. The method in brief:
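Compound at 0.5 μM incubated at 37 °C with pooled mixed-gender human liver microsomes (0.5 mg/mL protein) and an NADPH-generating system in pH 7.4 phosphate buffer, sampled 0–60 min. Parent depletion tracked by LC-MS/MS; t1/2 derived from the slope by non-linear regression, with predicted extraction ratio and maximum bioavailability also calculated.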

For a further data set, the target named is human VMAT2 (Homo sapiens (Human), UniProt Q05940). As to the kind of experiment: VMAT2 radioligand binding, 3H-dihydrotetrabenazine competition on human platelet homogenate. As to conditions: 10 nM 3H-dihydrotetrabenazine, human platelet homogenate, 25° C., 90 minutes; read-out: VMAT2 Ki. The method in brief:
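Human platelet homogenate (30 μg membrane protein/well) in DPBS with 1 mM EDTA, pH 7.4; twelve test-compound concentrations competed against 10 nM ³H-dihydrotetrabenazine. Incubated 90 min at 25 °C, bound radioligand collected by filtration on PEI-pretreated glass-fibre filters and counted by scintillation; Ki derived.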

Sequence of human VMAT2 (Q05940 whole entry): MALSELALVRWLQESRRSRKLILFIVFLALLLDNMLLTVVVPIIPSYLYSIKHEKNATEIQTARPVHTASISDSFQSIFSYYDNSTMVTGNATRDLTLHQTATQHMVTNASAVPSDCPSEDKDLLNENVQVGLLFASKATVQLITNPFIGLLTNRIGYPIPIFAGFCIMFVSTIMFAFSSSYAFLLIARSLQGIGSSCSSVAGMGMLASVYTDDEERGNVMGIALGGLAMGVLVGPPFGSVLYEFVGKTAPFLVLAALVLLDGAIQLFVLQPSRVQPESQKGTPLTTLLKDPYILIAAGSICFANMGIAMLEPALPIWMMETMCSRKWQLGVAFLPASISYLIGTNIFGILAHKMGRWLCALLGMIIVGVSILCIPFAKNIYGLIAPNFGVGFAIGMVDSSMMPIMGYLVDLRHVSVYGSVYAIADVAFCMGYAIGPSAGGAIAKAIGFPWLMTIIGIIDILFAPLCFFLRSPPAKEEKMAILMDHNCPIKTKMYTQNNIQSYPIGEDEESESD

As a reminder, the Ki is a measure of affinity in units of concentration, obtained from inhibition or displacement. As for `COc1cc2c(cc1OC[C@H](C)OC)CCN1C[C@@H](CC(C)(C)C)[C@H](O)C[C@H]21` [Compound 4-92, (2R,3R,11bR)-3-(2,2-dimethylpropyl)-10-methoxy-9-[(2S)-2-methoxypropoxy]-1H,2H,3H,4H,6H,7H,11bH-pyrido[2,1-a]isoquinolin-2-ol], in data set [1], the CLint scaled at 0.5 μM was 25.5 mL/min/kg, the half-life at 0.5 μM came to 49 min, the “Predicted Max. Bioavailability (% F)” value was 44 % F and the “HLM Predicted Systemic Clearance” value was 11.2 mL/min/kg. For the same molecule, at human VMAT2, the Ki was 51 nM.
`COc1cc2c(cc1OC(C)C)CCN1C[C@@H](CC(C)(C)C)[C@H](O)C[C@H]21` [Compound 4-38, (2R,3R,11bR)-3-(2,2-dimethylpropyl)-10-methoxy-9-(propan-2-yloxy)-1H,2H,3H,4H,6H,7H,11bH-pyrido[2,1-a]isoquinolin-2-ol]: in data set [1], the CLint scaled at 0.5 μM was 21.5 mL/min/kg, the half-life at 0.5 μM was 58 min, the “Predicted Max. Bioavailability (% F)” value is recorded as 48 % F and the “HLM Predicted Systemic Clearance” value was 10.35 mL/min/kg. Besides, the Ki on human VMAT2 came out at 3.7 nM.
The corresponding values for `COc1cc2c(cc1OCC(C)(O)C(F)(F)F)CCN1C[C@@H](CC(C)(C)C)[C@H](O)C[C@H]21` (stereo partly drawn) [Compound 4-66, (2R,3R,11bR)-3-(2,2-dimethylpropyl)-10-methoxy-9-(3,3,3-trifluoro-2-hydroxy-2-methylpropoxy)-1H,2H,3H,4H,6H,7H,11bH-pyrido[2,1-a]isoquinolin-2-ol] are ≤ 2.97 mL/min/kg, ≥ 420 min, ≥87 % F, ≤2.59 mL/min/kg and 10 nM.
The matching figures for `COc1cc2c(cc1OCCOC(C)(C)C#N)CCN1C[C@@H](CC(C)(C)C)[C@H](O)C[C@H]21` [Compound 4-44, 2-(2-{[(2R,3R,11bR)-3-(2,2-dimethylpropyl)-2-hydroxy-10-methoxy-1H,2H,3H,4H,6H,7H,11bH-pyrido[2,1-a]isoquinolin-9-yl]oxy}ethoxy)-2-methylpropanenitrile]: 26.9 mL/min/kg, 46 min, 43 % F, 11.47 mL/min/kg and 2.4 nM.
The corresponding values for `COc1cc2c(cc1OCCOCC#N)CCN1C[C@@H](CC(C)(C)C)[C@H](O)C[C@H]21` [Compound 4-70, 2-(2-{[(2R,3R,11bR)-3-(2,2-dimethylpropyl)-2-hydroxy-10-methoxy-1H,2H,3H,4H,6H,7H,11bH-pyrido[2,1-a]isoquinolin-9-yl]oxy}ethoxy)acetonitrile] are 11.4 mL/min/kg, 110 min, 64 % F, 7.25 mL/min/kg and 36 nM.
Take `COc1cc2c(cc1OCC1(C#N)CC1)CCN1C[C@@H](CC(C)(C)C)[C@H](O)C[C@H]21` [Compound 4-29, 1-({[(2R,3R,11bR)-3-(2,2-dimethylpropyl)-2-hydroxy-10-methoxy-1H,2H,3H,4H,6H,7H,11bH-pyrido[2,1-a]isoquinolin-9-yl]oxy}methyl)cyclopropane-1-carbonitrile]: in data set [1], the CLint scaled at 0.5 μM was ≤ 2.97 mL/min/kg, the half-life at 0.5 μM was ≥ 420 min, the “Predicted Max. Bioavailability (% F)” value is on record as ≥87 % F and the “HLM Predicted Systemic Clearance” value is ≤2.59 mL/min/kg. Further, on human VMAT2, the Ki worked out at 83 nM.
The matching figures for `COc1cc2c(cc1OCCCCC(F)(F)F)CCN1C[C@@H](CC(C)(C)C)[C@H](O)C[C@H]21` [Compound 4-115, (2R,3R,11bR)-3-(2,2-dimethylpropyl)-10-methoxy-9-[(5,5,5-trifluoropentyl)oxy]-1H,2H,3H,4H,6H,7H,11bH-pyrido[2,1-a]isoquinolin-2-ol]: 9.38 mL/min/kg, 133 min, 68 % F, 6.39 mL/min/kg and 6.1 nM.
The corresponding values for `COc1cc2c(cc1OCC1(F)COC1)CCN1C[C@@H](CC(C)(C)C)[C@H](O)C[C@H]21` [Compound 4-19, (2R,3R,11bR)-3-(2,2-dimethylpropyl)-9-[(3-fluorooxetan-3-yl)methoxy]-10-methoxy-1H,2H,3H,4H,6H,7H,11bH-pyrido[2,1-a]isoquinolin-2-ol] are 14.2 mL/min/kg, 88 min, 59 % F, 8.3 mL/min/kg and 8.1 nM.
With `C=C(C)COc1cc2c(cc1OC)[C@H]1C[C@@H](O)[C@H](CC(C)(C)C)CN1CC2` [Compound 4-56, (2R,3R,11bR)-3-(2,2-dimethylpropyl)-10-methoxy-9-[(2-methylprop-2-en-1-yl)oxy]-1H,2H,3H,4H,6H,7H,11bH-pyrido[2,1-a]isoquinolin-2-ol], in data set [1], the CLint scaled at 0.5 μM is 121 mL/min/kg, the half-life at 0.5 μM is 10 min, the “Predicted Max. Bioavailability (% F)” value is listed as 14 % F and the “HLM Predicted Systemic Clearance” value was 17.16 mL/min/kg. On human VMAT2, the Ki stood at 0.52 nM.
The matching figures for `COc1cc2c(cc1OCC1(O)CCC(F)(F)CC1)CCN1C[C@@H](CC(C)(C)C)[C@H](O)C[C@H]21` [Compound 4-76, (2R,3R,11bR)-9-[(4,4-difluoro-1-hydroxycyclohexyl)methoxy]-3-(2,2-dimethylpropyl)-10-methoxy-1H,2H,3H,4H,6H,7H,11bH-pyrido[2,1-a]isoquinolin-2-ol]: ≤ 2.97 mL/min/kg, ≥ 420 min, ≥87 % F, ≤2.59 mL/min/kg and 82 nM.
The corresponding values for `COc1cc2c(cc1OCC(F)(F)Cl)CCN1C[C@@H](CC(C)(C)C)[C@H](O)C[C@H]21` [Compound 4-65, (2R,3R,11bR)-9-(2-chloro-2,2-difluoroethoxy)-3-(2,2-dimethylpropyl)-10-methoxy-1H,2H,3H,4H,6H,7H,11bH-pyrido[2,1-a]isoquinolin-2-ol] are 5.5 mL/min/kg, 227 min, 78 % F, 4.31 mL/min/kg and 8.7 nM.
The matching figures for `COc1cc2c(cc1OCC1(C#N)CCC1)CCN1C[C@@H](CC(C)(C)C)[C@H](O)C[C@H]21` [Compound 4-42, 1-({[(2R,3R,11bR)-3-(2,2-dimethylpropyl)-2-hydroxy-10-methoxy-1H,2H,3H,4H,6H,7H,11bH-pyrido[2,1-a]isoquinolin-9-yl]oxy}methyl)cyclobutane-1-carbonitrile]: 24.3 mL/min/kg, 51 min, 45 % F, 10.98 mL/min/kg and 35 nM.
